Test results as given in US8833306B2, “PACAP for aquatic organism culture” (priority 2005, dated 2014).
No end group written: not given here.

What was measured:
[1] = tested on: tilapia Oreochromis niloticus; assay: Effect of recombinant PACAP on juvenile tilapia appetite (ingested food); format: in vivo; settings: i.p. 0.1 μg/g; 6 hours and 22 hours; p<0.05
Experimental: To analyze the effect of the PACAP in the fish appetite, we used tilapia of the Oreochromis niloticus species, without sex distinction and approximately the same average body weight. Three experimental groups were formed having 3 individuals in each and 3 replicates per group. The groups were acclimated in separated tanks with stable water recirculation, to a temperature of 28° C. and with the photoperiod of 14 hours light and 10 hours dark. […] The second group was treated with the GHRP-6 (Lipotec, S.A, Spain) by the same administration via at the dose of 0.1 μg of the peptide by gram of the animal corporal weight. The control group was treated with E. coli proteins contained in PBS 1× (E. coli proteins were obtained by the same purification procedure of the interest peptide, with the amount equivalent of the contaminants presents in the purified PACAP sample). After the treatments, the same amount of food was added to the three experimental groups, collecting the non ingested food in 6 hour and adding food again. The appetite was measured again, 22 hours from the beginning of the experiment. The food not ingested in each tank was dried in the stove (100° C., during 24 h) and was weighed in an analytical balance. The ingested food was calculated determining the difference between the food added to the tanks (10 grams, with a 20% of humidity) and the food not ingested by the fish.

[2] = tested on: juvenile Clarias gariepinus; assay: Growth stimulation in Clarias gariepinus by recombinant PACAP in the fish diet; format: in vivo; settings: in the diet at 5 mg/Kg of feed; 30 days; p<0.01
Experimental: The Pichia pastoris culture supernatant containing the recombinant PACAP (SEQ ID No. 14) was concentrated and formulated in the nutritional fish diet to a concentration of approximately 5 mg/Kg of feed. Two experimental groups were formed having 100 larvae in each with an average body weight of 0.1 g. One group was treated with recombinant PACAP (SEQ ID No. 14) containing in P. pastoris culture supernatants and the other used as a control group was treated with non-transformed P. pastoris culture supernatant. The experiment was carried out during 30 days.

Substance | appetite (ingested food) compared with control group [1] | growth increase compared with control group [2]
GHRP-6 | significant appetite increase | 
PACAP (SEQ ID No. 14): Clarias gariepinus recombinant PACAP variant contained in P. pastoris culture supernatants; used in Examples 6-8 (HSDGIFTDSYSRYRKQMAVKKYLAAVLGRRYRQRFRNK; ends and bridges not checked; listed as Clarias gariepinus) |  | 30%
